Measured values reported in patent US9133183B2, “Imidazolidinones and analogs exhibiting anti-cancer and anti-proliferative activities” (Deciphera Pharmaceuticals, LLC, priority 2013, dated 2015).

Tested on: MDA-MB-231-luc-D3H2LN human breast carcinoma xenograft
Assay: MDA-MB-231 xenograft study
Assay type: in vivo, mouse
Conditions: orally dosed at 30 mg/kg twice daily
Experimental: MDA-MB-231 Xenograft Study
To evaluate the in vivo anti-cancer activity compounds of formula I, a MDA-MB-231-luc-D3H2LN human breast carcinoma xenograft was employed. Briefly, MDA-MB-231-luc-D3H2LN cells were obtained from Xenogen and expanded in Minimal Essential Media (MEM) with EBSS which was modified with 1% L-glutamine and supplemented with 10% FBS, 1% PSG, 1% non-essential amino acids, and 1% sodium pyruvate. The growth environment was maintained in an incubator with a 5% CO2 atmosphere at 37° C. Cells were harvested and re-suspended using 50% serum-free media and 50% Matrigel® to generate a stock concentration of 5×10^6 cells/mL.
Six to 7 week old female C.B-17/IcrHsd-PrkdcscidLystbg mice were injected with 200 μL of cell suspension subcutaneously, just below the right axilla. All procedures carried out in this experiment were conducted in compliance with all the laws, regulations and guidelines of the National Institutes of Health (NIH). Treatment began when the mean tumor burden was approximately 150 mg. All mice were dosed with test compound by oral gavage. Body weights and tumor measurements were recorded three times weekly. […] Images were analyzed using Living Image (Xenogen, Alameda, Calif.) software. […]

SMILES: COCCN1CCN(C(=O)Nc2ccc(Oc3ccnc(-c4cnn(C)c4)c3)c(C)n2)C1=O [Example 18, 3-(2-methoxyethyl)-N-(6-methyl-5-((2-(1-methyl-1H-pyrazol-4-yl)pyridin-4-yl)oxy)pyridin-2-yl)-2-oxoimidazolidine-1-carboxamide]
- tumor growth inhibition: 51%
